Test results published in patent publication US7867707B2, “Method for detecting analytes in a sample” (Evotec AG, priority 2004, dated 2011).

System: c-fos mRNA
Test: Expression of c-fos mRNA in HepG2 cells, bead-based confocal detection with detection/capture oligonucleotides
Assay type: cell-based
Details: 100 nM PMA, 24 μl of lysate, using the calibration of example 1a
Protocol: Fully automated dual-channel confocal imaging was performed with two independent cooled CCD detectors. Excitation wavelengths were 532 nm and 633 nm, a dichroic beam splitter with 630 nm was used and emission filters were 565/50 nm and 690/40 nm. Laser power was […] for both wavelengths, measured at the entrance of the objective. Exposure times were usually in the range of 500-1000 ms.
The analysis of the images was performed with image analysis software as follows. Segmentation of the beads from the background was performed on a pixel-basis in the reference image. […] A mask of these rings corresponding to detected beads was generated from the reference image. This mask was applied to the signal image (see FIG. 6, right picture). Areas within the outer boundary of the ring were evaluated for fluorescence intensity stemming from the DO-analyte-CO complex bound to the bead. […] Such local background intensity was then subtracted from the signal intensity.
The final result was the mean fluorescence intensity/bead pixel of the signal image. In general, the intensity was averaged over all correctly detected beads of the image. As already mentioned, images of sedimented beads were taken. The sedimented beads were usually comprised in wells of micro- or nanotiter plates and in some cases, several images were taken of each well. […]

In the case of CCCCCCCCCCCCCC(=O)O[C@@H]1[C@@H](C)[C@@]2(O)[C@@H](C=C(CO)C[C@]3(O)C(=O)C(C)=C[C@@H]23)[C@@H]2C(C)(C)[C@]12OC(C)=O [PMA, Phorbol 12-myristate 13-acetate], the “c-fos mRNA copy number” value was 3.03*10^6 copies mRNA/well.
